“And” between values parts separate entries of the source, which are not always exact repeats. Equal entries are not always repeated.
How the values were obtained:
Test in all cases: SelectScreen kinase assay
Type in all cases: biochemical
MAPKAP-K2_h = molecular target: T1, MAPKAP-K2_h (Homo sapiens, UniProt P49137); settings: KM ATP, read-out: % control
T1 construct: purchased Life Technologies (Invitrogen) SelectScreen, Z'-LYTE / Adapta
Summary of the method: (§1)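 ATP level varied by condition (KM for the specific enzyme, 10 µM or 100 µM), while compound stayed at 3 µM; % control calculated against uninhibited DMSO wells.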

MAPK3_h = molecular target: T2, MAPK3_h (Homo sapiens, UniProt P27361); settings: KM ATP, read-out: % control
T2 construct: purchased Life Technologies (Invitrogen) SelectScreen, Z'-LYTE / Adapta
Summary of the method: as §1

LYN-B_h = molecular target: T3, LYN-B_h (Homo sapiens, UniProt P07948); settings: KM ATP, read-out: % control
T3 construct: purchased Life Technologies (Invitrogen) SelectScreen, Z'-LYTE / Adapta
Summary of the method: as §1

MELK_h = molecular target: T4, MELK_h (Homo sapiens, UniProt Q14680); settings: KM ATP, read-out: % control
T4 construct: purchased Life Technologies (Invitrogen) SelectScreen, Z'-LYTE / Adapta
Summary of the method: as §1

EGFR_h = molecular target: T5, EGFR_h (Homo sapiens, UniProt P00533); settings: KM ATP, read-out: % control
T5 construct: purchased Life Technologies (Invitrogen) SelectScreen, Z'-LYTE / Adapta
Summary of the method: as §1

BRAF = molecular target: T6, BRAF (Homo sapiens, UniProt P15056); settings: 100 µM ATP, read-out: % control
T6 construct: purchased Life Technologies (Invitrogen) SelectScreen, Z'-LYTE / Adapta
Summary of the method: as §1

IGF-1R_h = molecular target: T7, IGF-1R_h (Homo sapiens, UniProt P08069); settings: KM ATP, read-out: % control
T7 construct: purchased Life Technologies (Invitrogen) SelectScreen, Z'-LYTE / Adapta
Summary of the method: as §1

EphA8_h = molecular target: T8, EphA8_h (Homo sapiens, UniProt P29322); settings: KM ATP, read-out: % control
T8 construct: purchased Life Technologies (Invitrogen) SelectScreen, Z'-LYTE / Adapta
Summary of the method: as §1

HIPK2_h = molecular target: T9, HIPK2_h (Homo sapiens, UniProt Q9H2X6); settings: KM ATP, read-out: % control
T9 construct: purchased Life Technologies (Invitrogen) SelectScreen, Z'-LYTE / Adapta
Summary of the method: as §1

JNK1-alpha1_h = molecular target: T10, JNK1-alpha1_h (Homo sapiens, UniProt P45983); settings: 100 µM ATP, read-out: % control
T10 construct: purchased Life Technologies (Invitrogen) SelectScreen, Z'-LYTE / Adapta
Summary of the method: as §1

CDK9_h = molecular target: T11, CDK9_h (Homo sapiens, UniProt P50750); settings: KM ATP, read-out: % control
T11 construct: purchased Life Technologies (Invitrogen) SelectScreen, Z'-LYTE / Adapta
Summary of the method: as §1

JAK2-JH1-JH2_h = molecular target: T12, JAK2-JH1-JH2_h (Homo sapiens, UniProt O60674); settings: KM ATP, read-out: % control
T12 construct: JAK2-JH1-JH2_h; purchased Life Technologies (Invitrogen) SelectScreen, Z'-LYTE / Adapta
Summary of the method: as §1

PAK3_h = molecular target: T13, PAK3_h (Homo sapiens, UniProt O75914); settings: KM ATP, read-out: % control
T13 construct: purchased Life Technologies (Invitrogen) SelectScreen, Z'-LYTE / Adapta
Summary of the method: as §1

PKB-alpha_h = molecular target: T14, PKB-alpha_h (Homo sapiens, UniProt P31749); settings: KM ATP, read-out: % control
T14 construct: purchased Life Technologies (Invitrogen) SelectScreen, Z'-LYTE / Adapta
Summary of the method: as §1

Abl_E255K_h = molecular target: T15, Abl_E255K_h (Homo sapiens, UniProt P00519, E255K); settings: KM ATP, read-out: % control
T15 construct: purchased Life Technologies (Invitrogen) SelectScreen, Z'-LYTE / Adapta
Summary of the method: as §1

Ret_Y791F_h = molecular target: T16, Ret_Y791F_h (Homo sapiens, UniProt P07949, Y791F); settings: KM ATP, read-out: % control
T16 construct: purchased Life Technologies (Invitrogen) SelectScreen, Z'-LYTE / Adapta
Summary of the method: as §1

IRR_h = molecular target: T17, IRR_h (Homo sapiens, UniProt P14616); settings: KM ATP, read-out: % control
T17 construct: purchased Life Technologies (Invitrogen) SelectScreen, Z'-LYTE / Adapta
Summary of the method: as §1

Tie2_h = molecular target: T18, Tie2_h (Homo sapiens, UniProt Q02763); settings: KM ATP, read-out: % control
T18 construct: purchased Life Technologies (Invitrogen) SelectScreen, Z'-LYTE / Adapta
Summary of the method: as §1

CLK2_h = molecular target: T19, CLK2_h (Homo sapiens, UniProt P49760); settings: KM ATP, read-out: % control
T19 construct: purchased Life Technologies (Invitrogen) SelectScreen, Z'-LYTE / Adapta
Summary of the method: as §1

MLK1_h = molecular target: T20, MLK1_h (Homo sapiens, UniProt P80192); settings: KM ATP, read-out: % control
T20 construct: purchased Life Technologies (Invitrogen) SelectScreen, Z'-LYTE / Adapta
Summary of the method: as §1

DCAMKL2_h = molecular target: T21, DCAMKL2_h (Homo sapiens, UniProt Q8N568); settings: KM ATP, read-out: % control
T21 construct: purchased Life Technologies (Invitrogen) SelectScreen, Z'-LYTE / Adapta
Summary of the method: as §1

FGFR2_h = molecular target: T22, FGFR2_h (Homo sapiens, UniProt P21802); settings: KM ATP, read-out: % control
T22 construct: purchased Life Technologies (Invitrogen) SelectScreen, Z'-LYTE / Adapta
Summary of the method: as §1

MRCK-alpha_h = molecular target: T23, MRCK-alpha_h (Homo sapiens, UniProt Q5VT25); settings: KM ATP, read-out: % control
T23 construct: purchased Life Technologies (Invitrogen) SelectScreen, Z'-LYTE / Adapta
Summary of the method: as §1

TAO1_h = molecular target: T24, TAO1_h (Homo sapiens, UniProt Q9UL54); settings: KM ATP, read-out: % control
T24 construct: purchased Life Technologies (Invitrogen) SelectScreen, Z'-LYTE / Adapta
Summary of the method: as §1

IRAK1_h = molecular target: T25, IRAK1_h (Homo sapiens, UniProt P51617); settings: KM ATP, read-out: % control
T25 construct: purchased Life Technologies (Invitrogen) SelectScreen, Z'-LYTE / Adapta
Summary of the method: as §1

FGFR1_h = molecular target: T26, FGFR1_h (Homo sapiens, UniProt P11362); settings: KM ATP, read-out: % control
T26 construct: purchased Life Technologies (Invitrogen) SelectScreen, Z'-LYTE / Adapta
Summary of the method: as §1

MRCK-beta_h = molecular target: T27, MRCK-beta_h (Homo sapiens, UniProt Q9Y5S2); settings: KM ATP, read-out: % control
T27 construct: purchased Life Technologies (Invitrogen) SelectScreen, Z'-LYTE / Adapta
Summary of the method: as §1

JAK3_h = JAK3_h (Homo sapiens, UniProt P52333)
Summary of the method: as §1

PAK4_h = molecular target: T28, PAK4_h (Homo sapiens, UniProt O96013); settings: KM ATP, read-out: % control
T28 construct: purchased Life Technologies (Invitrogen) SelectScreen, Z'-LYTE / Adapta
Summary of the method: as §1

NEK4_h = molecular target: T29, NEK4_h (Homo sapiens, UniProt P51957); settings: KM ATP, read-out: % control
T29 construct: purchased Life Technologies (Invitrogen) SelectScreen, Z'-LYTE / Adapta
Summary of the method: as §1

MAPK1_h = molecular target: T30, MAPK1_h (Homo sapiens, UniProt P28482); settings: KM ATP, read-out: % control
T30 construct: purchased Life Technologies (Invitrogen) SelectScreen, Z'-LYTE / Adapta
Summary of the method: as §1

AMPK_A2_B1_G1_h = molecular target: T31, AMPK_A2_B1_G1_h (Homo sapiens, UniProt P54646); settings: KM ATP, read-out: % control
T31 construct: purchased Life Technologies (Invitrogen) SelectScreen, Z'-LYTE / Adapta
Summary of the method: as §1

Abl_G250E_h = molecular target: T32, Abl_G250E_h (Homo sapiens, UniProt P00519, G250E); settings: KM ATP, read-out: % control
T32 construct: purchased Life Technologies (Invitrogen) SelectScreen, Z'-LYTE / Adapta
Summary of the method: as §1

Sequence of JAK3_h (P52333 whole entry): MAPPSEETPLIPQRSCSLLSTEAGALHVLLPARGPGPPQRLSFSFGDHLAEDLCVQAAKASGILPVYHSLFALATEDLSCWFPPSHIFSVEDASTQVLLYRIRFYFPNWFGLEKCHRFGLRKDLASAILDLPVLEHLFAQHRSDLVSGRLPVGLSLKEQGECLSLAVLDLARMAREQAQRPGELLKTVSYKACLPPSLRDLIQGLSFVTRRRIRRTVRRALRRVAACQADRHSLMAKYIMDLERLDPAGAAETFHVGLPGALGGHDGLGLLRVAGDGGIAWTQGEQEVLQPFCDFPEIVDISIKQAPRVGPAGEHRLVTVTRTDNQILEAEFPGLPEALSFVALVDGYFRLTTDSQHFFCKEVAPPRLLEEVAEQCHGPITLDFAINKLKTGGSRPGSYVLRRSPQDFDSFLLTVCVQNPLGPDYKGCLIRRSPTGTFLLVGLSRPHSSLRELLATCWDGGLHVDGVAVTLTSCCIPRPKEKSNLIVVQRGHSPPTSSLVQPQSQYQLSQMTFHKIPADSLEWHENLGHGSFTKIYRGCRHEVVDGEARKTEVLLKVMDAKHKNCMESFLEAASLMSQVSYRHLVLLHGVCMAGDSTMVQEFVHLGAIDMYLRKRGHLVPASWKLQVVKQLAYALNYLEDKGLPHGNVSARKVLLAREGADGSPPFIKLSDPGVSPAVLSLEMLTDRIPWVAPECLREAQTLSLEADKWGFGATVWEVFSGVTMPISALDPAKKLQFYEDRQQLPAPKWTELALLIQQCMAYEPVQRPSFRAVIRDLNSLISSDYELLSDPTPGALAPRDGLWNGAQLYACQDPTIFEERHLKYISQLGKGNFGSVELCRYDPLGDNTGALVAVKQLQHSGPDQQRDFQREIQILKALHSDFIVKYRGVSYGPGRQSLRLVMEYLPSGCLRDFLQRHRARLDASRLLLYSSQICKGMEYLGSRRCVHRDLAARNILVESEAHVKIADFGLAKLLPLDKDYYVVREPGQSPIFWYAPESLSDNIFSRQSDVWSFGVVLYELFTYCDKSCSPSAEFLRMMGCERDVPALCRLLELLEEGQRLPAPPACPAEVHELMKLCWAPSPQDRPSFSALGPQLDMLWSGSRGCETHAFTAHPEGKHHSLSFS
T5 sequence (P00533 25-1210): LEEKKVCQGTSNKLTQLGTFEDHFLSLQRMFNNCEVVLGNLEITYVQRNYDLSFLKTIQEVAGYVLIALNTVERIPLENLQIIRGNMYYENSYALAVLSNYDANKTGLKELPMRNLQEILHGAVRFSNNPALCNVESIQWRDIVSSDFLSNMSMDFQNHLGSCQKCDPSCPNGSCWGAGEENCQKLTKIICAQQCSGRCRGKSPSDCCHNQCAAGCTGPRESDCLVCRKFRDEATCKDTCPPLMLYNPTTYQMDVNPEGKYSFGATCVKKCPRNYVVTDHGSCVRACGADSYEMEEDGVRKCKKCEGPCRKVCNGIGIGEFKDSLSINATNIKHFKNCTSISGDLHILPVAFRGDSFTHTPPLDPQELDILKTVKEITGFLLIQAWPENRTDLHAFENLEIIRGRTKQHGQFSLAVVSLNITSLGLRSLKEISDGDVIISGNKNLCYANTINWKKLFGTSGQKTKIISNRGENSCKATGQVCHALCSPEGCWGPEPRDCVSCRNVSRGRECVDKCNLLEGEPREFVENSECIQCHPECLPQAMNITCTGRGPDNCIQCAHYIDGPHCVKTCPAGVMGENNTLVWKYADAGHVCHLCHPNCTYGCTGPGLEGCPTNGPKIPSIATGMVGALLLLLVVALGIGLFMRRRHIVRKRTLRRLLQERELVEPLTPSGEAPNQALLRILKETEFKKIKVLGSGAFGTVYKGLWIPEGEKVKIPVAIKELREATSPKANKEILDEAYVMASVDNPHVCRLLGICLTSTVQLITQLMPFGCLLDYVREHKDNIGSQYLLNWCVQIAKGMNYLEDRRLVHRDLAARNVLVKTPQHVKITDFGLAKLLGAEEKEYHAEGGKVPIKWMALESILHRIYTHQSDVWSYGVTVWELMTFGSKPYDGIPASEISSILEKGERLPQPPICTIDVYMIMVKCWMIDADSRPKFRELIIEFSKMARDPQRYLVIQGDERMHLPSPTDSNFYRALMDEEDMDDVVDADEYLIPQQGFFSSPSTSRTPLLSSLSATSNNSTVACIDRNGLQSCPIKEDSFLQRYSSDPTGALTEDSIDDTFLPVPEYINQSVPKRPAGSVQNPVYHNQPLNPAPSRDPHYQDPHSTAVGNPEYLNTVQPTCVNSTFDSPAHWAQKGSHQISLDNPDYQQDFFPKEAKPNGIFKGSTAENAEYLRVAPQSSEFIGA
T22 sequence (P21802 22-821): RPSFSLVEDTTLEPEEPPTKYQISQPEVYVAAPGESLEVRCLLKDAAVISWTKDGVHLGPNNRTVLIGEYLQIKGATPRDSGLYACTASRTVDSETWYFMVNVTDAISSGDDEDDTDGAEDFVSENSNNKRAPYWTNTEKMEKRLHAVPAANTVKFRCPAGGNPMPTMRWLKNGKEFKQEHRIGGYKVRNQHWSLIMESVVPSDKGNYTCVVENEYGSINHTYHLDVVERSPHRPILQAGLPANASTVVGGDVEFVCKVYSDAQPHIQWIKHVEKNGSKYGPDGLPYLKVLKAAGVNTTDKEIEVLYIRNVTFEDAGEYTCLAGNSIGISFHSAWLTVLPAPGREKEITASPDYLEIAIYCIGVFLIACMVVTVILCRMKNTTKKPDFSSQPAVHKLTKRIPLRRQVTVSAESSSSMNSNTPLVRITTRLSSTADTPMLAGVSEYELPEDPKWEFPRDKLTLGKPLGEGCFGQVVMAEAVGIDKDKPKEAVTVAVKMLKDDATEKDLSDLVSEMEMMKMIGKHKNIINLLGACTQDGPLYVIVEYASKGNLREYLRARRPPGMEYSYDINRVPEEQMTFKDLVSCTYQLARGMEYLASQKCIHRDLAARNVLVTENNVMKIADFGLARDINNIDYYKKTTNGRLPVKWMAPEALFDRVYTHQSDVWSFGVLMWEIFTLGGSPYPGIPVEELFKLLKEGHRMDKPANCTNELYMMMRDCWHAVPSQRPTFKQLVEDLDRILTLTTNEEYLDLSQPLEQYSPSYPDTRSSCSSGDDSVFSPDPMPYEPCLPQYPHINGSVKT
T20 sequence (P80192 whole entry): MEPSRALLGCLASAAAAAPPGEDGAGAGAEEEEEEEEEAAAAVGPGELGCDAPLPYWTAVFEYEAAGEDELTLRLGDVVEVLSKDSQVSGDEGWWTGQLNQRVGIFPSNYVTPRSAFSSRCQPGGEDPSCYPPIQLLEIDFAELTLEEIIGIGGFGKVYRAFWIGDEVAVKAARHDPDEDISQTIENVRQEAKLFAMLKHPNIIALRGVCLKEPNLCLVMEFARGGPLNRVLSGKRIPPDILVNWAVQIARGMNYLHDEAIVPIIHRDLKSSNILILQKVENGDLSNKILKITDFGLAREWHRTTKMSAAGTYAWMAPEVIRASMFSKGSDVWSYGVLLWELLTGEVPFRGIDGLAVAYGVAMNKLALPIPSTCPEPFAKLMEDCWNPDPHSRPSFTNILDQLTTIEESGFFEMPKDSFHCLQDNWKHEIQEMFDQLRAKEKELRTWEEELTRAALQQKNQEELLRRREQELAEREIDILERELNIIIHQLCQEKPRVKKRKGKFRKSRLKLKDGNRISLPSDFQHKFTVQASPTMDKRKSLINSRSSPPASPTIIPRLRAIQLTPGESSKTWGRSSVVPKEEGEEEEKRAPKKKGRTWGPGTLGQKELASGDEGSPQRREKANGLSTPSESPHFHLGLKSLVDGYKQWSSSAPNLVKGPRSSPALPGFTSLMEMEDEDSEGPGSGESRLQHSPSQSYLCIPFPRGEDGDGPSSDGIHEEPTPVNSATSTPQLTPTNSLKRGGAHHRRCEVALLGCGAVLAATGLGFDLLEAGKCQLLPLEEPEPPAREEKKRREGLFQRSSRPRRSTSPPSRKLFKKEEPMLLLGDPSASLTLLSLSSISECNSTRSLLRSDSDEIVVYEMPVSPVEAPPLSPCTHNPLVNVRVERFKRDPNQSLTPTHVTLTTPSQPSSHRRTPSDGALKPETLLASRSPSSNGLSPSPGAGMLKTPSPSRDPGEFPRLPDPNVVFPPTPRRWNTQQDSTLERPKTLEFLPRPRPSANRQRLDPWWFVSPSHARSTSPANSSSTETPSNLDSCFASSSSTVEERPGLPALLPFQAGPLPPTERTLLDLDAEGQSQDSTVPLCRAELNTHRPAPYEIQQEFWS
T3 sequence (P07948 1-491 isoform P07948-2): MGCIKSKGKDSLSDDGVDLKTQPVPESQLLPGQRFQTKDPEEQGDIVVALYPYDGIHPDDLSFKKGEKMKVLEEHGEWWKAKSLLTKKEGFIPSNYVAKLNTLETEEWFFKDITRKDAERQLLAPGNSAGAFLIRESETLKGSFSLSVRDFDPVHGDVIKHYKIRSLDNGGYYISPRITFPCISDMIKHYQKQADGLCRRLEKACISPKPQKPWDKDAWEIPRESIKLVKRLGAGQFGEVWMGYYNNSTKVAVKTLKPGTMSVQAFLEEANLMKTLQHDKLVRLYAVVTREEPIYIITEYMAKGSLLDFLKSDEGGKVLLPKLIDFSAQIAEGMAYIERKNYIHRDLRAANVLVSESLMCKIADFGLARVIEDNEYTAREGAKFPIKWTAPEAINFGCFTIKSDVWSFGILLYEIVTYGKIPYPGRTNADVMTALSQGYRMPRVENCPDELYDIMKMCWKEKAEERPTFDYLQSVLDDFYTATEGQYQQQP
T10 sequence (P45983 1-384 isoform P45983-2): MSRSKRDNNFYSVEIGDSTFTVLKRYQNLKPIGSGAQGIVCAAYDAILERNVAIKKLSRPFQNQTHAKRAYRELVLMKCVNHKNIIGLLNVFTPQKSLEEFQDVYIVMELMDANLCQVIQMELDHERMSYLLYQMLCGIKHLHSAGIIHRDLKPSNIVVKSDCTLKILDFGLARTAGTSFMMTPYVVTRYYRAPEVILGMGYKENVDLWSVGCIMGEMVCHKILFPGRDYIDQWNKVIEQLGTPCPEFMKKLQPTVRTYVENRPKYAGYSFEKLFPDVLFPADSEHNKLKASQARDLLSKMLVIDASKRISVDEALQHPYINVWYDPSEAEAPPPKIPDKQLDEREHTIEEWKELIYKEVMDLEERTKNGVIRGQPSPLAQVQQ

c1cc(CC2CCOCC2)n2nc(Nc3ccc4c(NC5CCOCC5)n[nH]c4c3)nc2c1 [CC-509, [3-(2H-3,4,5,6-tetrahydropyran-4-ylamino)(1H-indazol-6-yl)][5-(2H-3,4,5,6-tetrahydropyran-4-ylmethyl)(2H-1,2,4-triazolo[1,5-a]pyridin-2-yl)]amine]
remaining activity at 3 µM (MAPKAP-K2_h): 96%
remaining activity at 3 µM (MAPK3_h): 90%
remaining activity at 3 µM (LYN-B_h): 39%
remaining activity at 3 µM (MELK_h): 10%
remaining activity at 3 µM (EGFR_h): 97%
remaining activity at 3 µM (BRAF): 83%
remaining activity at 3 µM (IGF-1R_h): 97%
remaining activity at 3 µM (EphA8_h): 91%
remaining activity at 3 µM (HIPK2_h): 96%
remaining activity at 3 µM (JNK1-alpha1_h): 88%
remaining activity at 3 µM (CDK9_h): 31%
remaining activity at 3 µM (JAK2-JH1-JH2_h): 4%
remaining activity at 3 µM (PAK3_h): 97%
remaining activity at 3 µM (PKB-alpha_h): 100%
remaining activity at 3 µM (Abl_E255K_h): 26%
remaining activity at 3 µM (Ret_Y791F_h): 18%
remaining activity at 3 µM (IRR_h): 99%
remaining activity at 3 µM (Tie2_h): 87%
remaining activity at 3 µM (CLK2_h): 50%
remaining activity at 3 µM (MLK1_h): 2%
remaining activity at 3 µM (DCAMKL2_h): 98%
remaining activity at 3 µM (FGFR2_h): 46%
remaining activity at 3 µM (MRCK-alpha_h): 91%
remaining activity at 3 µM (TAO1_h): 96%
remaining activity at 3 µM (IRAK1_h): 20%
remaining activity at 3 µM (FGFR1_h): 69%
remaining activity at 3 µM (MRCK-beta_h): 94%
remaining activity at 3 µM (JAK3_h; 3 µM, KM ATP, read-out: % control): 5%
IC50 (JAK3_h; 10-point dose-response, commercial vendor): 20 nM and 18 nM
remaining activity at 3 µM (PAK4_h): 87%
remaining activity at 3 µM (NEK4_h): 78%
remaining activity at 3 µM (MAPK1_h): 94%
remaining activity at 3 µM (AMPK_A2_B1_G1_h): 63%
remaining activity at 3 µM (Abl_G250E_h): 29%

Reference: article PMC4710522, “A Novel Triazolopyridine-Based Spleen Tyrosine Kinase Inhibitor That Arrests Joint Inflammation” (PLoS ONE, 2016)
